This assay concerns the target MEK1 (Homo sapiens, UniProt Q02750). The experiment in a line: isolated enzyme assay, MEK1 inhibition. The format is biochemical. Conditions: read-out: 50% inhibition (IC50) value. An excerpt:
The compound of Formula (I) is 6-(4-bromo-2-fluorophenylamino)-7-fluoro-3-methyl-3H-benzoimidazole-5-carboxylic acid (2-hydroxyethoxy)-amide (COMPOUND A). The compound of Formula (I) is described in PCT Application No. WO 03/077914, which is hereby incorporated by reference in its entirety hereto, and methods for its preparation have been described, for example, in Example 18 therein.

Sequence of MEK1 (Q02750 whole entry, species assumed): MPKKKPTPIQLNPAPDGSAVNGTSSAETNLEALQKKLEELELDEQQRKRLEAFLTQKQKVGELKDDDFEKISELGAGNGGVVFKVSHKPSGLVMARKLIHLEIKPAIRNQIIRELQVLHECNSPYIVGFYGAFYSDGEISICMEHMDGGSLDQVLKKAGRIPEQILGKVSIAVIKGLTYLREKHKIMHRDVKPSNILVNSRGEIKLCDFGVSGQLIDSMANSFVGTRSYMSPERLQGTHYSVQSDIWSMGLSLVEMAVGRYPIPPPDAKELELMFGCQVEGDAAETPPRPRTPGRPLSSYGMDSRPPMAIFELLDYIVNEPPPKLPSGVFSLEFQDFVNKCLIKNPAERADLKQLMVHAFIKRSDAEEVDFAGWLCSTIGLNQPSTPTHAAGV

For `Cn1cnc2c(F)c(Nc3ccc(Br)cc3F)c(C(=O)NOCCO)cc21` [COMPOUND A, 6-(4-bromo-2-fluorophenylamino)-7-fluoro-3-methyl-3H-benzoimidazole-5-carboxylic acid (2-hydroxyethoxy)-amide], the IC50 (usually the point on the concentration scale where inhibition reaches its midpoint) was determined as 12 nM.

The values are drawn from US9034909B2, “Use of organic compound for the treatment of Noonan Syndrome” (Novartis AG, priority 2011, dated 2015).
